Measured values: US20130210633A1, “METHOD FOR REDUCING WATER STRESS IN PLANTS” (SUMITOMO CHEMICAL COMPANY, LIMITED, priority 2010, published 2013)
Structures can show the parent of a compound that is named as a salt.

Tested on: rice (cultivar: Nipponbare)
Assay: Evaluation test for reduction of drought stress by rice seed treatment (plant weight)
Type: in vivo
Settings: with drought stress conditions; for Ratio to non-treated group: fresh weight of above-ground part; for Fresh weight of the above-ground part: seed treatment, average of 3 repetitions
Protocol: Evaluation Test for Reduction of Drought Stress by Rice Seed Treatment (Plant Weight) A Blank slurry solution containing 5% (V/V) color coat red (Becker Underwood, Inc.), 5% (V/V) CF-Clear (Becker Underwood, Inc.) and 0.4% Maxim XL (Syngenta) was prepared. A sodium salt of the compound “A” was dissolved in the Blank slurry to obtain a slurry solution containing the sodium salt of the compound “A” in a concentration of 333 to 10,000 ppm. In a 50-ml centrifuge tube made of a plastic, 300 μl of the above slurry solution was added to 10 g of rice seeds (cultivar: Nipponbare), followed by stirring for 3 to 5 minutes and further drying of the seeds. As a control, seeds treated by using the Blank slurry in place of the above slurry solution were used as seeds for a non-treated group. On wells of a 406-well plug plate, a filter paper was placed and rice seeds subjected to the above seed treatment were sown on the filter paper. Using a two-fold diluted Kimura B water culture solution (Plant Science 119: 39-47 (1996)), cultivation was performed for 14 days under the conditions of a temperature of 28° C./23° C. (day/night), an illuminance of 8,500 1× and a day length of 12 hours to obtain test plants. Test plants (each 5 seedlings) were placed in an empty 35 ml flat-bottomed test tube ([…]/manufactured by Sarstedt) and then left to stand for 2 days without being capped (this was used as a test group with the drought stress conditions). As a test group without the drought stress conditions, the test plants (each 5 seedlings) were placed in a centrifuge tube filled with 10 ml of a two-fold diluted Kimura B water culture solution, and then left to stand for 2 days without being capped. After that, the plants (each 5 seedlings) were transplanted to a plastic pot (N-71-130G, manufactured by TOKAN KOGYO CO., LTD.) filled with the field soil which had been subjected to a sterilization treatment and then cultivated for 14 days under the conditions of a temperature of 28° C./23° C. (day/night), an illuminance of 8,500 1× and a day length of 12 hours while performing bottom-surface irrigation. After the drought stress treatment, the fresh weight of the above-ground part of the five individuals of test plants in each test group was collectively measured and an average of 3 repetitions of each test group was determined. As a result, the fresh weight of the above-ground part of the test group in the present invention was apparently large as compared with the control and drought stress was reduced.

Compound: O=C(O)CCC(=O)NCCc1ccccc1 [Compound A, Na salt, 4-oxo-4-(2-phenylethyl)aminobutyric acid]
- Ratio to non-treated group (0.01 mg/g of seeds): 105%
- Ratio to non-treated group (0.1 mg/g of seeds): 105%
- Ratio to non-treated group (0.25 mg/g of seeds): 119%
- Ratio to non-treated group (0.3 mg/g of seeds): 121%
- Fresh weight of the above-ground part (amount of chemical 0.01 mg/g of seeds): 0.73 g/5 seedlings
- Fresh weight of the above-ground part (amount of chemical 0.1 mg/g of seeds): 0.73 g/5 seedlings
- Fresh weight of the above-ground part (amount of chemical 0.25 mg/g of seeds): 0.83 g/5 seedlings
- Fresh weight of the above-ground part (amount of chemical 0.3 mg/g of seeds): 0.84 g/5 seedlings
